Measured values published in patent US20230190796A1, “ENGINEERED CELLS EXPRESSING PROSTATE-SPECIFIC MEMBRANE ANTIGEN (PSMA) OR A MODIFIED FORM THEREOF AND RELATED METHODS” (Juno Therapeutics, Inc., priority 2017, published 2023).

Legend:
[1] = system: T cells expressing anti-CD19 CAR/PSMA^(N9del); assay: Cytokine release in co-culture in the presence of DCFPyL; format: cell-based, human; conditions: E:T 4:1 and 1:1; eight 3-fold serial dilutions of DCFPyL starting from 1×10^−5 M
Description: Specifically, accumulated amounts (pg/mL) of cytokine(s) (IL-2, IFN-gamma, TNF-alpha) were assessed following incubation of the target cells and the various populations of engineered cells, for a period of approximately 22-24 hours. Such assays provided a measure of antigen-specific cytokine secretion per CAR+ cell in the dose. In other assays, cytolytic activity against CD19-expressing target cells was assessed after incubation with the T cells.
Cytokine amounts in culture supernatants were determined using a multiplex cytokine immunoassay (Luminex®).

[2] = system: T cells expressing anti-CD19 CAR/PSMA^(N9del); assay: Cytolytic assay in the presence of DCFPyL; format: cell-based, human; conditions: E:T 4:1; seven 3-fold serial dilutions of DCFPyL starting from 3.33×10^−6 M
Description: Cytolytic activity was assessed by measuring the loss of viable target cells over a period of three days, as determined by red fluorescent signal (using the IncuCyte® Live Cell Analysis System, Essen Bioscience). The number of NLR+ target cells was determined every 2 hours over time from 0 hours to 66 hours. Where indicated, a killing index was determined as 1/area under the curve (AUC) of the NLR+ target cell count over time, from 0 hours to 66 hours.
Specifically, co-cultures were incubated with DCFPyL at one of seven (7) 3-fold serial dilutions of DCFPyL starting from 3.33×10^−6 M, or were incubated without DCFPyL (0 M).

SMILES: O=C(O)CCC(NC(=O)NC(CCCCNC(=O)c1ccc(F)nc1)C(=O)O)C(=O)O (centres unmarked) [DCFPyL, 2-(3-{1-carboxy-5-[(6-fluoro-pyridine-3-carbonyl)-amino]-pentyl}-ureido)-pentanedioicacid]
- effect on IFN-γ production [1]: did not substantially affect
- effect on cytolytic activity of T cells expressing anti-CD19 CAR/PSMA^(N9del) [2]: did not affect
